Test results taken from US20070112075A1 (Forest Laboratories, Inc., priority 2005, published 2007).
Structures can show the parent of a compound that is named as a salt.

Experiments:
monoamine oxidase = conditions: cited from earlier work
norepinephrine uptake = conditions: cited from earlier work
[1] = Stability of escitalopram oxalate in commercial formulations and in contact with bupropion hydrochloride; format: physicochemical
From the text: Preferably, the bupropion and escitalopram in the oral dosage form are physically separated. The inventors have discovered that conventional formulations of escitalopram hydrobromide and escitalopram oxalate unexpectedly degrade under storage conditions. […] The escitalopram and bupropion may be separated by having separate discrete zones of the dosage form (such as different layers) for each component. Alternatively, the dosage form may include a plurality of escitalopram tablets or beads and a plurality of bupropion tablets or beads, where one or both of the escitalopram tablets/beads and bupropion tablets/beads are coated.

| Structure (SMILES) | inhibition of monoamine oxidase (monoamine oxidase) | blockade of norepinephrine uptake (norepinephrine uptake) | time stable in commercial formulations ([1]; commercial formulations) | degradation rate compared with commercial formulations ([1]; stored in intimate contact with bupropion hydrochloride) |
| --- | --- | --- | --- | --- |
| CC(NC(C)(C)C)C(=O)c1cccc(Cl)c1 (racemic) [bupropion, (±)-1-(3-chlorophenyl)-2-[(1,1-dimethylethyl)amino]-1-propanone] | does not inhibit | weak blocker |  |  |
| CN(C)CCC[C@@]1(c2ccc(F)cc2)OCc2cc(C#N)ccc21 [escitalopram oxalate] |  |  | about 12 months | degrades significantly more rapidly |
